Experiments:
[1] = tested on: cellules spléniques de souris C57BL/6J; experiment: rosette test in vitro (sheep red blood cells with mouse spleen cells); format: cell-based; settings: for activité inhibitrice sur la formation des rosettes (comparison in words): compared with acide N-méthyl-4-(naphtoyl-1)-pyrrolyl-2-carboxylique; for activité immuno-stimulante (stimulation de la formation des rosettes): result in words
Source text: A) Activité des composés selon l'invention sur le test des rosettes in vitro
L'étude a été réalisée sur globules rouges de mouton avec des cellules spléniques de souris C57BL/6J.

[2] = tested on: transformation lymphoblastique; experiment: lymphoblastic transformation test; format: cell-based; settings: low concentration; vis-à-vis de la Concanavaline A and LPS (Lipopolysaccharides de E. Coli)
Description: B) Activité des composés selon l'invention sur le test de transformation lymphoblastique
Sur le test de transformation lymphoblastique, les composés selon l'invention montrent une activité antimitotique, aux doses allant de 5 à 50 µg/ml. […] La mise en évidence d'une activité immuno-stimulante pour certains de ces composés permet d'envisager une autre application thérapeutique.

SMILES | activité inhibitrice sur la formation des rosettes (comparison in words) [1] | activité stimulante à faible concentration [2] | activité immuno-stimulante (stimulation de la formation des rosettes) [1]
Cn1cc(C(=O)c2cccc3c2C=CC(O)C3O)cc1C(=O)O (centres unmarked) [acide N-méthyl-4-(5,6-dihydroxy-5,6-dihydronaphtoyl-1)-pyrrolyl-2-carboxylique] | activité comparable à celle de l'acide N-méthyl-4-(naphtoyl-1 )-pyrrolyl-2-carboxylique |  | 
Cn1cc(C(=O)c2cc([S+](C)[O-])cc3ccccc23)cc1C(=O)O (centres unmarked) [Acide N-méthyl-4-(3-méthylsulfinylnaphtoyl-1)-pyrrolyl-2-carboxylique] | activité comparable à celle de l'acide N-méthyl-4-(naphtoyl-1 )-pyrrolyl-2-carboxylique | activité stimulante | 
Cn1cc(C(=O)c2cccc3c(O)cccc23)cc1C(=O)O [dérivé N-méthyl-5-hydroxylé, Acide N-méthyl-4-(5-hydroxy-naphtoyl-1)-pyrrolyl-2-carboxylique] | inhibiteur à un degré identique |  | activité immuno-stimulante à faible concentration
O=C(O)c1cc(C(=O)c2cccc3ccccc23)c[nH]1 [acide 4-(naphtoyl-1)pyrrolyl-2-carboxylique] | activité inhibitrice du même ordre que celle du dérivé N-méthylé | activité stimulante | 
Cn1cc(C(=O)c2cc(O)cc3ccccc23)cc1C(=O)O [dérivé N-méthyl-(3-hydroxy-naphtoyl-1), Acide N-méthyl-4-(3-hydroxy-naphtoyl-1)-pyrrolyl-2-carboxylique] |  |  | stimuler la formation des rosettes

From patent EP0223890B1, “Aryl derivatives of pyrrole, their obtention and their use in immunology” (Albert ROLLAND S.A. Société dite, priority 1985, dated 1987)
